Source: US20050064442A1, “Methods for identifying risk of breast cancer and treatments thereof” (priority 2002, published 2005)

Test system: cell lines where RAD21 expression is inhibited using siRNA
Assay: Clonogenic survival assay
Assay type: cell-based
Protocol: Clonogenic survival assays measure survival of cells after treatment with cytotoxic agents. In this particular assay the aim is to investigate the effect of downregulating RAD21 expression on sensitivity to therapeutically relevant DNA damaging agent.
Cells were transfected with siRNA against RAD21, siRAD21—272, to reduce expression of RAD21. […] Cells were then trypsinized and replated at 200 cells per plate. Cells were grown for 11-12 days, fixed and stained with crystal violet to detect colonies. Colonies were then counted.
The data were fitted to a curve and the DRF values calculated from the fitted curves of siRAD21 and Lipofectamine.

## bleomycin
Cell lines where RAD21 expression is inhibited using siRNA, FIGS. 9 and 10
  sensitivity to drug in clonogenic survival: increased sensitivity
Cells transfected with siRAD21—272, drug exposure 2 hours, two days after transfection, colonies counted after 11-12 days, from fitted curves of siRAD21 and Lipofectamine
  DRF20 (factor by which the dose can be reduced in the presence of decreased RAD21 expression): 1.15
